What all share (assay): Minimum inhibitory concentration
Holding throughout (type): cell-based

The test system of assay [1] is Streptococcus oralis ATCC 35037. The source says:
(§1) That is, the amount in parts-per-million (ppm) required to inhibit the growth of common bacterial pathogens.

Assay [2] has as its system Actinomyces viscosus ATCC 43137.
Text: as §1

The test system of assay [3] is Lactobacillus casei ATCC 334. The following applies: Lacticaseibacillus casei.
Text: as §1

Where [4] appears, read: ATCC35037, Streptococcus oralis ATCC 35037, solvent ethanol or DMSO per sample, read-out: minimum inhibitory concentration.
Where [5] appears, read: ATCC43137, Actinomyces viscosus ATCC 43137, solvent ethanol or DMSO per sample, read-out: minimum inhibitory concentration.
Where [6] appears, read: ATCC334, Lactobacillus casei ATCC 334, solvent ethanol or DMSO per sample, read-out: minimum inhibitory concentration.

Drawing on patent US10583074B2, “Oral care compositions” (priority 2017, dated 2020), this text covers MIC for three compounds.

Each structure is given as a SMILES string. In brackets after ≈: the same amount, converted by molar mass. Read-outs that look alike come from different tables or passages of the source.

`Oc1cc(Cl)ccc1Oc1ccc(Cl)cc1Cl` [Triclosan]: the MIC was 7.8 µg/mL (≈ 26.9 µM) in assay [1] (Streptococcus oralis, ATCC35037, read-out: minimum inhibitory concentration); 3.9 µg/mL (≈ 13.5 µM) in assay [2] (Actinomyces viscosus, ATCC43137, read-out: minimum inhibitory concentration); 7.8 µg/mL (≈ 26.9 µM) in assay [3] (ATCC334, read-out: minimum inhibitory concentration).

Consider `C=CCc1ccc(O)c(OC)c1` [Eugenol, 4-allyl-2-methoxyphenol], for which the MIC in assay [1] (setting [4]), in assay [2] (setting [5]) and in assay [3] (setting [6]) was 250 µg/mL (≈ 1520 µM) throughout.

On to `CC1(C)CC[C@]2(C(=O)O)CC[C@]3(C)C(=CC[C@@H]4[C@@]5(C)CC[C@H](O)C(C)(C)[C@@H]5CC[C@]43C)[C@@H]2C1` [Oleanic Acid, 3β-hydroxy-olea-12-en-28-oic], for which the results for the MIC in assay [1] (setting [4]), in assay [2] (setting [5]) and in assay [3] (setting [6]) were 7.8 µg/mL (≈ 17.1 µM), 15.6 µg/mL (≈ 34.2 µM) and 7.8 µg/mL (≈ 17.1 µM), respectively.
